Values quoted from earlier work as cited in PMC9669016, “First-in-human phase Ia study of the PI3Kα inhibitor CYH33 in patients with solid tumors” (Nature Communications, 2022).
≈ marks a conversion by molar mass, not a printed value. Read-outs that look alike come from different tables or passages of the source.

Experiments:
[1] = set-up: method as in Investigator's Brochure (IB) 12; details: dogs, without concentration dependency; ref Investigator's Brochure (IB) 12; cited from earlier work
CHL = system: CHL; set-up: method as in Investigator's Brochure (IB) 12; details: ref Investigator's Brochure (IB) 12; cited from earlier work
salmonella typhimurium = details: cited from earlier work
SD rats [2] = system: SD rats; set-up: method as in Investigator's Brochure (IB) 12; details: ref Investigator's Brochure (IB) 12; cited from earlier work
[3] = system: KYSE410 human esophageal cancer xenograft; set-up: method as in Investigator's Brochure (IB) 12; details: ref Investigator's Brochure (IB) 12, cited from earlier work; for inhibition rate (tumor growth): multiple doses
[4] = set-up: method as in Study Protocol CYH33-101 Table 2; details: ref Study Protocol CYH33-101 Table 2, cited from earlier work
[5] = set-up: method as in Investigator's Brochure (IB) 12; details: human, without concentration dependency; ref Investigator's Brochure (IB) 12; cited from earlier work
[6] = set-up: method as in Investigator's Brochure (IB) 12; details: rats, without concentration dependency; ref Investigator's Brochure (IB) 12; cited from earlier work
[7] = set-up: method as in Study Protocol CYH33-101 Table 2; details: in H2O; ref Study Protocol CYH33-101 Table 2; cited from earlier work
Beagle dogs [8] = system: Beagle dogs; set-up: method as in Investigator's Brochure (IB) 12; details: ref Investigator's Brochure (IB) 12; cited from earlier work
SD rats [9] = system: SD rats; set-up: method as in Investigator's Brochure (IB) 12; details: long-term, ref Investigator's Brochure (IB) 12, cited from earlier work
[10] = system: phosphorylation of Akt and rpS6; set-up: method as in Investigator's Brochure (IB) 12; details: ref Investigator's Brochure (IB) 12, cited from earlier work
[11] = system: KYSE510 human esophageal cancer xenograft; set-up: method as in Investigator's Brochure (IB) 12; details: 12.5 mg/kg oral for 21 days; ref Investigator's Brochure (IB) 12; cited from earlier work
Beagle dogs [12] = system: Beagle dogs; set-up: method as in Investigator's Brochure (IB) 12; details: species wording unclear (Beagle dogs / rats); ref Investigator's Brochure (IB) 12; cited from earlier work
CYP2D6 = system: CYP2D6; set-up: method as in Investigator's Brochure (IB) 12; details: up to 100 µM; ref Investigator's Brochure (IB) 12; cited from earlier work
PI3Kα and its mutants = system: PI3Kα and its mutants; set-up: method as in PMID 33109399; details: read-out: IC50 range; cited from earlier work
[13] = system: more than 300 other kinases, including PIKK family; set-up: method as in Investigator's Brochure (IB) 12; details: ref Investigator's Brochure (IB) 12; cited from earlier work
[14] = set-up: method as in Investigator's Brochure (IB) 12; details: ref Investigator's Brochure (IB) 12, cited from earlier work
Caco-2 cells = system: Caco-2 cells; set-up: method as in Investigator's Brochure (IB) 12; details: 2.00 - 10.0 µM; efflux transporters may be involved; ref Investigator's Brochure (IB) 12; cited from earlier work
CYP2B6 = system: CYP2B6; set-up: method as in Investigator's Brochure (IB) 12; details: up to 100 µM; ref Investigator's Brochure (IB) 12; cited from earlier work
CYP1A2 = system: CYP1A2; set-up: method as in Investigator's Brochure (IB) 12; details: up to 100 µM; ref Investigator's Brochure (IB) 12; cited from earlier work
human hepatocytes = system: human hepatocytes; set-up: method as in Investigator's Brochure (IB) 12; details: ref Investigator's Brochure (IB) 12; cited from earlier work
Beagle dogs [15] = system: Beagle dogs; set-up: method as in Investigator's Brochure (IB) 12; details: long-term, ref Investigator's Brochure (IB) 12; cited from earlier work

COC(=O)Nc1cc(C(F)(F)F)c(-c2nc(N3CCOCC3)c3cc(CN4CCN(S(C)(=O)=O)CC4)cn3n2)cn1 [CYH33, methyl (5-(6-((4-(methylsulfonyl)piperazin-1-yl)methyl)−4-morpholinopyrrolo[2,1-f][1,2,4]triazin-2-yl)−4-(trifluoromethyl)pyridin-2-yl)carbamate]
plasma protein binding (PPB) [1]: 97.1% | CHL chromosomal aberration assay result (CHL): negative | reverse mutation assay (Ames test) result (salmonella typhimurium): negative | MTD, acute toxicity (SD rats [2]): ≥ 600 mg/kg | T/C ratio ([3]; 12.5 mg/kg oral for 21 days): approximately 30% | inhibition rate (tumor growth) ([3]; 12.5 mg/kg): > 67% | inhibition rate (tumor growth) ([3]; 25 mg/kg): > 90% | inhibition rate (tumor growth) ([3]; 50 mg/kg): > 95% | Solubility ([4]; in H2O): 1210 µg/mL (≈ 2020 µM) | Solubility, pH dependent ([4]; pH <3): High solubility at pH <3 | plasma protein binding (PPB) [5]: 94.9% | plasma protein binding (PPB) [6]: 97.5% | pKa [7]: 4.86 ± 0.06 | maximum tolerated dose (MTD), acute toxicity (Beagle dogs [8]): > 120 mg/kg | highest non-severely toxic dose (HNSTD) (SD rats [9]; female SD rats): 3 mg/kg | highest non-severely toxic dose (HNSTD) (SD rats [9]; male SD rats): 8 mg/kg | time of peak concentration in tumor tissues ([10]; single dose 12.5, 25, 50 mg/kg): 2 h | phosphorylation of Akt and rpS6 in tumor tissues ([10]; single dose, at 0.25 h (25, 50 mg/kg) or 0.5 h (12.5 mg/kg), recovered after 8 h): down-regulate | T/C ratio [11]: approximately 30% | arrhythmia, ECG, blood pressure and body temperature parameters (Beagle dogs [12]): no drug-related arrhythmia or changes | inhibition of CYP2D6 (CYP2D6): did not inhibit | IC50 (PI3Kα and its mutants): 5 to 20 nM | effects on more than 300 other kinases, including other PIKK family members [13]: slight | number of metabolites detected in vivo [14]: 14 | urinary excretion [14]: less than 1 % of the dose | cumulative excretion of parent drug in feces ([14]; within 96 h after administration): approximately 24 % of the dose | permeability (Caco-2 cells): moderately permeable | inhibition of CYP2B6 (CYP2B6): did not inhibit | inhibition of CYP1A2 (CYP1A2): did not inhibit | oxidative metabolites in human hepatocytes (human hepatocytes): not detected | highest non-severely toxic dose (HNSTD) (Beagle dogs [15]): 0.2 mg/kg
